10 compounds from patent publication US5760241A, “Thiol derivatives with metallopeptidase inhibitory activity” (priority 1996, dated 1998) can be followed below.

The IC50 is the concentration at which inhibition is half-maximal. Low readings indicate greater potency, high ones weaker potency.

Where a name gives a salt, the structure may show the parent alone.

Test [1] concerns the target T1, ACE (purified by lung rabbit, EC 3.4.15.1) (Oryctolagus cuniculus, UniProt P12822).
T1 construct: purchased SIGMA; host or cells: rabbit lung
T1 sequence (P12822 34-1310): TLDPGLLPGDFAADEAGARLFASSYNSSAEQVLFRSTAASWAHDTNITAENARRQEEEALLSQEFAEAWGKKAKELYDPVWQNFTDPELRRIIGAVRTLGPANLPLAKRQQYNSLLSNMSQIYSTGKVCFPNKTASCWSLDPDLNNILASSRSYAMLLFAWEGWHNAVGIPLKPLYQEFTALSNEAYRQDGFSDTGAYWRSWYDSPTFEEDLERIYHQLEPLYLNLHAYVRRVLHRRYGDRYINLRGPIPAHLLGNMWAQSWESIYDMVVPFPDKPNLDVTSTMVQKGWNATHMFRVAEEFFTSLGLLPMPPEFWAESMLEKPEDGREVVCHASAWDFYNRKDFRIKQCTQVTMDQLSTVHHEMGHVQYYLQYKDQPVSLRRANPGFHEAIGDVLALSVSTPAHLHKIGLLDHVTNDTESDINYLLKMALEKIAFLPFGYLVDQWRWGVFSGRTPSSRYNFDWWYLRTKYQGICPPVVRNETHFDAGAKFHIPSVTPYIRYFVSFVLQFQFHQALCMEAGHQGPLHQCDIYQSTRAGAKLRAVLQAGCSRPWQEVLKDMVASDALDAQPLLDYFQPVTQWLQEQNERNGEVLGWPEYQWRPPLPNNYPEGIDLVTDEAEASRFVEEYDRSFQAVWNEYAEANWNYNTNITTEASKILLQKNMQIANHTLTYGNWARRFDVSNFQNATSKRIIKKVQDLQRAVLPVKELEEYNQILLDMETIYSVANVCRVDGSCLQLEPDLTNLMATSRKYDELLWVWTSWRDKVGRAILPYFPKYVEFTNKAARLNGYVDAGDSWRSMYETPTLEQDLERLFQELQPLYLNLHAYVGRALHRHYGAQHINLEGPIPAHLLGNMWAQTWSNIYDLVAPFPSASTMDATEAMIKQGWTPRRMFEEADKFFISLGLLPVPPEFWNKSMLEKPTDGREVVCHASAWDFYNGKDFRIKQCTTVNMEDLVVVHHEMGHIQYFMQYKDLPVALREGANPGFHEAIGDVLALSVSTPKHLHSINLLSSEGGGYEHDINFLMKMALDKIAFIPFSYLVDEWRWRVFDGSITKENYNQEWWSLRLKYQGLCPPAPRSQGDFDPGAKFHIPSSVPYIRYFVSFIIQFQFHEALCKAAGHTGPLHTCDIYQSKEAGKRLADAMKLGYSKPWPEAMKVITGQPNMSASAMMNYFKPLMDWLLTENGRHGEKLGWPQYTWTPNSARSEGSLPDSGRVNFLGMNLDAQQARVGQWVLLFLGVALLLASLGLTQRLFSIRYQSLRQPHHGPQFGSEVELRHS
The test is described as follows: In vitro ACE-inhibitory activity (FAPGG substrate, spectrophotometric). The test is classed as biochemical. Particulars: 37° C.; FAPGG 0.8 mM. Here is the method:
b) ACE-inhibitory activity
The ACE-inhibitory activity was evaluated according to the method reported in the literature by B. Holmquist et al., in Analytical Biochemistry 95, 540-548 (1979).
[…] of ACE (250 mU/ml purified by lung rabbit, EC 3.4.15.1 SIGMA) were preincubated with 50 μl of the compound of formula I or of the comparison compound in thermostated cuvettes at 37° C.
The reaction was started by adding furylacryloylphenylalanylglycylglycine 0.8 mM (FAPGG-SIGMA).
Contemporaneously, by using a Beckman DU-50 spectrophotometer provided with a program for calculating delta A/minutes and regression coefficients of the enzyme kinetics curves, the absorbance at 340 nm was recorded in continuo for 5 minutes.
The percentage of the enzyme inhibition in the preparations treated with the compounds of formula I or with the comparative compounds with respect to the untreated preparations was expressed as IC50 (nM) value.

Test [2] addresses T2, NEP (membranes from rat kidney cortex) (Rattus norvegicus, UniProt P07861).
T2 construct: from tissue; host or cells: kidney cortex membranes of male Sprague-Dawley rats
T2 sequence (P07861 1-750): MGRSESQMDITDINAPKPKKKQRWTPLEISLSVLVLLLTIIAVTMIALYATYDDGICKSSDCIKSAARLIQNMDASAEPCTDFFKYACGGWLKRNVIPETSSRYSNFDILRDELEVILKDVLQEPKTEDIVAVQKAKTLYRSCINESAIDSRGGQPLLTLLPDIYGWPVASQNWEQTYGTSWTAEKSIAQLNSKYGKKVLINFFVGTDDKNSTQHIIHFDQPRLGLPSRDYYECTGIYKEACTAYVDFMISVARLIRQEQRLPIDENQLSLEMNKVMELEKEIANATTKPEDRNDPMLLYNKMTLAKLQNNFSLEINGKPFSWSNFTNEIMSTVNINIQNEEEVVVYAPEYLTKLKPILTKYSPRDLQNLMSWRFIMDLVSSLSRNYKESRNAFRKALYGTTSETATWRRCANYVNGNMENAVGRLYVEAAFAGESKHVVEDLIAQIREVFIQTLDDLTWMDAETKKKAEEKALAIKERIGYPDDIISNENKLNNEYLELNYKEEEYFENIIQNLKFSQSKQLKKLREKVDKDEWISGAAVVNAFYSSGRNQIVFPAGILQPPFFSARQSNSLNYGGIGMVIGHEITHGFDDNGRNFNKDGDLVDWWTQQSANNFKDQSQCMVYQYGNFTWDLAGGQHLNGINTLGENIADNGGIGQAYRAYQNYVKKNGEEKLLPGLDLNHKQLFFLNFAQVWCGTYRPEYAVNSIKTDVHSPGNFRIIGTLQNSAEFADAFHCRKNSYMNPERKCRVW
The test is described as follows: In vitro NEP-inhibitory activity in rat kidney cortex membranes ([3H][Leu5]-enkephaline substrate). The following applies: for IC50: 20 minutes at 30° C., [3H][Leu5]-enkephaline 15 nM. In kind it is biochemical, male Sprague-Dawley rats. The procedure:
a) NEP-inhibitory activity
The NEP-inhibitory activity was evaluated in membranes from rat kidney cortex prepared according to the procedure described by T. Maeda et al. in Biochim. Biophys. Acta 1983, 731(1), 115-120.
By working at 0°-4° C., kidneys were removed from male Sprague-Dawley rats weighing approximately 300 g.
Cortex was carefully dissected, finely minced and suspended in a homogenization buffer (10 mM sodium phosphate pH 7.4 containing 1 mM MgCl2, 30 mM NaCl, 0.02% NaN3) 1:15 weight/volume.
The tissue was then homogenized for 30 seconds using an Ultra-Turrax homogenizer.
Approximately 10 ml of homogenate were layered over 10 ml of sucrose (41% weight/volume) and centrifuged at 31200 rpm for 30 minutes at 4° C. in a fixed angle rotor. The membranes were collected from the buffer/sucrose interface, washed twice with 50 mM TRIS/HCl buffer (pH 7.4) and resuspended into the same buffer for storage.
The membranes were stored in small aliquots at -80° C. until use.
The NEP-inhibitory activity was evaluated according to the method described by C. Llorens et al., in Eur. J. Pharmacol., 69, (1981), 113-116, as reported hereinafter.
Aliquots of the membrane suspension prepared as above described (concentration 5 μg/ml of proteins) were preincubated in the presence of an aminopeptidase inhibitory (Bestatin--1 mM) for 10 minutes at 30° C.
[^3 H][Leu^5 ]-enkephaline (15 nM) and buffer TRIS/HCl pH 7.4 (50 mM) were added in order to obtain a final volume of 100 μl.
Incubation (20 minutes at 30° C.) was stopped by adding HCl 0.1M (100 μl).
The formation of the metabolite [^3 H]Tyr-Gly-Gly was quantified by chromatography on polystyrene columns (Porapak Q).

The next test has as its system ACE/NEP. The test is described as follows: Ex vivo mixed/dual ACE/NEP-inhibitory activity (lung and kidney of SHR taken together). The test is classed as in vivo, spontaneously hypertensive rats (SHR). Particulars: intravenous or oral. The procedure: The ex vivo ACE/NEP-inhibitory activity of the compounds of formula I, in particular, was evaluated by considering the enzymatic activity in tissue homogenates (lung and kidney for the ACE- and NEP-inhibitory activity, respectively) from spontaneously hypertensive rats (SHR), treated with the tested compounds by intravenous or oral route.
The inhibitory activity of the compounds of formula I was evaluated in kidneys of spontaneously hypertensive rats (SHR), 5 minutes after i.v. injection (0.6, 0.64 and 21 μmoles/kg) and 30 minutes, 60 minutes and 4 hours after oral administration (30 μmoles/kg) of the tested compounds.
The inhibitory activity of the compounds of formula I was evaluated in lungs of spontaneously hypertensive rats (SHR), 5 minutes after i.v. injection (0.6, 0.64 and 21 μmoles/kg) and 30 minutes, 60 minutes and 4 hours after oral administration (30 μmoles/kg) of the tested compounds.
As an example, the percentages of basal enzymatic activity obtained in the ex vivo tests after the administration of compounds 29 and 41, as representative compounds of formula I, and of the comparison compounds R-1, R-2, R-3 and R-4 are reported in the following table 2.

Take `COc1cccc(CC(CS)C(=O)N[C@@H](Cc2ccc(-c3ccccc3)cc2)C(=O)O)c1` (single isomer, unassigned) [compound 42, N-[2-mercaptomethyl-3-(3-methoxyphenyl)propionyl]-(1,1'-biphenyl-4-yl)-L-alanine]: the IC50 in test [1] worked out at 7.5 nM; in test [2], 16 nM.
The matching figures for `O=C(N[C@@H](Cc1ccc(-c2ccccc2)cc1)C(=O)O)C(CS)Cc1cccnc1` (single isomer, unassigned) [compound 50, N-[2-mercaptomethyl-3-(3-pyridyl)propionyl]-(1,1'-biphenyl-4-yl)-L-alanine hydrochloride]: 13 nM and 2.9 nM.
The matching figures for `O=C(N[C@@H](Cc1ccc(-c2ccccc2)cc1)C(=O)O)C(CS)Cc1cccnc1` (single isomer, unassigned) [compound 51, N-[2-mercaptomethyl-3-(3-pyridyl)propionyl]-(1,1'-biphenyl-4-yl)-L-alanine hydrochloride]: 2 nM and 13 nM.
Turning to `Cc1cc(CC(CS)C(=O)N[C@@H](Cc2ccc(-c3ccccc3)cc2)C(=O)O)on1` (single isomer, unassigned) [compound 53, N-[2-mercaptomethyl-3-(3-methyl-5-isoxazolyl)propionyl]-(1,1'-biphenyl-4-yl)-L-alanine], half-maximal inhibition in test [1] (IC50) required 13 nM. Also, in test [2] (read-out: NEP-inhibitory activity % inhibition (10^-7 M), concentration 10^-7 M), the inhibition at 0.1 µM is 94%.
With `Cc1cc(CC(CS)C(=O)N[C@@H](Cc2ccc(-c3ccccc3)cc2)C(=O)O)on1` (single isomer, unassigned) [compound 54, N-[2-mercaptomethyl-3-(3-methyl-5-isoxazolyl)propionyl]-(1,1'-biphenyl-4-yl)-L-alanine], the IC50 in test [1] was 11 nM. Further, the “NEP-inhibitory activity % inhibition (10^-7 M)” value in test [2] (concentration 10^-7 M) was 76%.
For `CC(c1ccccc1)C(CS)C(=O)N[C@@H](C)C(=O)O` (stereo partly drawn) [RB 105, N-[2-(mercaptomethyl)-3-phenylbutanoyl]-L-alanine, reference compound], the IC50 in test [1] is 5 nM; in test [2], 24 nM. In addition, the “ex-vivo mixed/dual ACE/NEP-inhibitory activity, in words” value in the test with ACE/NEP is recorded as “not confirmed by ex-vivo tests”.
As to `O=C(N[C@@H](Cc1ccc(-c2ccccc2)cc1)C(=O)O)[C@@H](CS)Cc1ccccc1` [compound 46, N-[(2S)-2-mercaptomethyl-3-phenylpropionyl]-(1,1'-biphenyl-4-yl)-L-alanine], the figures for the half-maximal inhibitory concentration (IC50) in test [1] and in test [2] were 2.6 nM and 1.8 nM, respectively.
Turning to `O=C(N[C@@H](Cc1ccc(-c2ccccc2)cc1)C(=O)O)[C@H](CS)Cc1ccccc1` [compound 47, N-[(2R)-2-mercaptomethyl-3-phenylpropionyl]-(1,1'-biphenyl-4-yl)-L-alanine], the IC50 came to 25.3 nM in test [1] and 6.1 nM in test [2].
`CC(C)C(CS)C(=O)N[C@@H](Cc1ccc(-c2ccccc2)cc1)C(=O)O` (stereo partly drawn) [compound 49, N-(2-isopropyl-3-mercaptopropionyl)-(1,1'-biphenyl-4-yl)-L-alanine]: the IC50 in test [1] was 3.8 nM; in test [2], 1.2 nM.
As to `O=C(N[C@@H](Cc1ccc(-c2ccccc2)cc1)C(=O)O)C(CS)Cc1ccco1` (stereo partly drawn) [compound 52, N-[3-(2-furyl)-2-(mercaptomethyl)propionyl]-(1,1'-biphenyl-4-yl)-L-alanine], the 50% inhibitory concentration (IC50) in test [1] is 6 nM; in test [2] it was 3.7 nM.
